Assay results as given in patent publication US6762052B1, “DNA sequence encoding flavin-containing monooxygenase” (priority 1993, dated 2004).
Positions count from the first letter of the chain named. Where two headings read alike, the source gives them in different places. Values belong to the compound of their own block, whether it stands above or below them.

Experiments:
[1] = target: T1, adult human liver flavin-containing monooxygenase (form 3) (Homo sapiens, UniProt P31513, E158K); assay: N- and S-oxygenation by cDNA-expressed HLFMO 3 (solubilized protein from E. coli transformed with pTrcHLFMO 3), HPLC; settings: for Vmax, Expressed HLFMO / Km: N- or S-oxide formation, for the 4-bromophenyl-1,3-oxathiolanes formation of the trans S-oxide; for Km: read-out: Km, Expressed HLFMO
T1 sequence (P31513 1-532 E158K): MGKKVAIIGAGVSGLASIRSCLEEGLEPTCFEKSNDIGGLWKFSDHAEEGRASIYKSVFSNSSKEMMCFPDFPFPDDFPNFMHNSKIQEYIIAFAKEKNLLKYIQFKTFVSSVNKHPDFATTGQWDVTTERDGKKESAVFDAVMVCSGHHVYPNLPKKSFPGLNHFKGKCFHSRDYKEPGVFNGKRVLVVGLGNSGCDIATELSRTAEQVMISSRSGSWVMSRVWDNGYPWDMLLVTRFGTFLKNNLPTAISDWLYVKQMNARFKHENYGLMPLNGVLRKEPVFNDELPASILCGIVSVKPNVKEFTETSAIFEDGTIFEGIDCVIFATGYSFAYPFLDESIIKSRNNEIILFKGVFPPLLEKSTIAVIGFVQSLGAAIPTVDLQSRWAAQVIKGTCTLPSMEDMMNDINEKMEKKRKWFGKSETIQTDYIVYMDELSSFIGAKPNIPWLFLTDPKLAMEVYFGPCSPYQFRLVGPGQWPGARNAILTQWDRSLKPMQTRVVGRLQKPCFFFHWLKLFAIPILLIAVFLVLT
Method: (§1) In all cases examined, product formation was directly determined by HPLC analysis of organic extracts.
Competent NM522 Escherichia coli cells were transformed with the pTrc HLFMO 3 plasmid. […] After inoculation with a fresh overnight culture of NM522 containing pTrcHLFMO 3, the culture was grown at 37° C. until Abs600 was approximately 0.5 absorbance units. Finally, IPTG (0.8 mM) was added to the culture to induce expression of protein and the culture was left to grow overnight at 37° C.
The bacterial pellet was resuspended in 5 volumes of 50 mM potassium phosphate buffer (pH 8.4) containing 1% Triton X-100, 0.1% L-, α-phosphatidylcholine (L-α-lecithin) from egg yolk, 500 μM PMSF, and 1 mM EDTA. The mixture was sonicated and then centrifuged to remove cellular debris. As a control, bacterial lysate extracts from IPTG-induced pTrc99A-transformed NM522 cells (i.e., pTrc99A without the HLFMO 3 cDNA insert) were prepared under the same conditions.
(§2) Human liver samples were obtained from the Department of Surgery (UCSF) and with a protocol from the Medical College of Wisconsin (S. Wrighton).
(§3) A typical incubation mixture (final volume 0.25 ml) contained hepatic microsomes (0.4 mg of protein) or bacterial lysate (2.3 mg of protein), NADP^+ (0.5 mM), glucose-6-phosphate (2.0 mM), glucose-6-phosphate dehydrogenase (1 IU), DETAPAC (0.8 mM) and potassium phosphate buffer (50 mM, pH 8.4). Reactions were initiated by the addition of substrate and terminated at designated times by the addition of three volumes of cold dichloromethane, mixed thoroughly and centrifuged to separate the aqueous and organic fractions. N- and S-oxide metabolic products in the resulting organic extracts were separated and quantified by HPLC. […] Thiobenzamide and thiobenzamide S-oxide were quantified with this same, HPLC system employing a mobile phase of methanol/acetonitrile/60% perchloric acid (20:80:0.016, v/v) which gave retention volumes of 2.7 and 7.0 ml, respectively. […] The major metabolites formed in the incubations were also subjected to mass spectral analysis after extraction of isolated HPLC fractions.
(§4) RPLC of the S-oxide diastereomers with a Chiracel OT chiral analytical column (25 cm×0.15 cm inner diameter, Daicel Chemical Co., New York, N.Y.) was accomplished with a Beckman system, Kratos UV detector (240 nm) and a Hewlett Packard Integrator. […] Quantification was accomplished by comparing integrated HPLC peak areas after taking into account the difference in the extinction coefficients at 240 nm. Likewise, the cis and trans S-oxide diasteromers of (+)- and (−)-2-methyl-1,-benzodithiole were separated with a Chiracel OT chiral analytical column.

Human Liver Microsomes = assay: in vitro
Method: as §1, §2, §3, §4

lys158-HFMO3-MBP = target: T2, lys158-HFMO3-MBP (Homo sapiens, UniProt P31513, E158K); assay: Substrate oxygenation by lys158-HFMO3-MBP fusion protein, HPLC; settings: human, 15 min, 200 µM, pH 9
T2 sequence (P31513 2-532 E158K): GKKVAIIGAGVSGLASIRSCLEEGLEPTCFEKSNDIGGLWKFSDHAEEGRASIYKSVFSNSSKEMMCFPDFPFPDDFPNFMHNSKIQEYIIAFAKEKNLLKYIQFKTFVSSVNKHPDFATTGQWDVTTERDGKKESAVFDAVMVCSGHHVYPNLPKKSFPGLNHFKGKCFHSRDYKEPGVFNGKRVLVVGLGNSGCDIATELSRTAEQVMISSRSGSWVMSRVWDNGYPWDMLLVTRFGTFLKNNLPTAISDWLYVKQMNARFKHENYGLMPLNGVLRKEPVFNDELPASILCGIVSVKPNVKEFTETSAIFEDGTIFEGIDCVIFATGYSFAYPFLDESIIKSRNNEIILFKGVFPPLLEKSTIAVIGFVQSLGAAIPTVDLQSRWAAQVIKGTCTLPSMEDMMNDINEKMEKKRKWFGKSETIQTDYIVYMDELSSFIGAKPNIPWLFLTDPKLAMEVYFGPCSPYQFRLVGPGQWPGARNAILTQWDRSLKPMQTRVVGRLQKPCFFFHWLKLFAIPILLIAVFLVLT
Method: (§5) For HFMO3-MBP assay, all HFMO3-MBP incubations were done as follows: Into a test tube was added DETAPAC (1.2 mM, final concentration for a 250 μl reaction) followed by the addition of 60 μl NADPH generating system (0.4 mM NADP, 0.4 mM glucose-6-phosphate, and 20 μl of a 50 units mI^−1 glucose-6-phosphate dehydrogenase). The tube was chilled on ice and buffer and enzyme were added as described below for individual experiments to give a volume of 240 μl. The incubation was initiated by the addition of 5-DTP (10 μl of 5 mM) and placed in a shaking water bath at 37° C. for 10 min (unless specified otherwise). The incubation was stopped by the addition of 1.0 ml of ice-cold CH2Cl2. Following the addition of sodium carbonate (approx. 20 mg), the culture tube was vortexed, centrifuged (2000×g, 10 min), and the organic layer was removed and transferred to a 1.5 ml microfuge tube. The organic solvent was evaporated under a stream of Ar(g) to dryness and the residue was taken up in MeOH (300 μl) for determination HPLC analysis.
(§6) Data was analyzed with a Hitachi D-2500 integrator.
(§7) MTS-oxygenation assays were carried out under the same buffer, temperature, time and volume conditions, as for the N-oxygenation assays. The reactions were initiated upon addition of 10 μl of a 5 mM solution of MTS. The reaction was quenched with the addition of 700 μl of 80% CH3CN:20% hexane then 20 mg NaCl(s) and vortexed vigorously for 10 sec. The quenched reactions were then centrifuged briefly to separate the phases. The organic layer, containing product and substrate, was removed and used directly for HPLC analysis.
(§8) All other instruments used were the same as above for the N-oxygenation reactions. Conditions for elution were 50% CH3CN/H2O (v:v) with a flow rate gradient as follows: 1.5 ml min^−1 from 0 to 4 min., 1.5-2.5 ml min^−1 from 4 to 5 min, 2.5 ml min^−1 from 5 to 15 min.
Trimethylamine is commonly ingested in foodstuffs or it is available in the diet of humans from choline and other sources. Trimethylamine (TMA) is exclusively eliminated in humans by metabolism to trimethylamine N-oxide (TMANO). […] Thus, urinary TMANO formation provides a simple, reliable and direct assay of FMO3 activity in adult humans. Analysis of TMA to TMANO ratios provides a direct means of phenotyping adult humans for FMO3 activity. Phenotyping FMO3 activity in humans would provide a simple means of evaluating the relationship between the presence of FMO3 and various disease conditions. […]

glu158-HFMO3-MBP = target: T3, glu158-HFMO3-MBP (Homo sapiens, UniProt P31513); assay: Substrate oxygenation by glu158-HFMO3-MBP fusion protein, HPLC; settings: human, 15 min, 200 µM, pH 9
T3 sequence (P31513 2-532): T2 sequence (P31513 2-532 E158K) with K157E
Method: as §5, §6, §7, §8
Trimethylamine is commonly ingested in foodstuffs or it is available in the diet of humans from choline and other sources. Trimethylamine (TMA) is exclusively eliminated in humans by metabolism to trimethylamine N-oxide (TMANO). […]

Compound: (+)-4-bromophenyl-1,3-oxathiolane
- cis S-oxide, % of S-oxide product, Expressed HLFMO [1]: 38.5%
- substrate activity for human liver microsomes and expressed HLFMO 3, in words [1]: excellent substrates
- trans S-oxide formation rate, Expressed HLFMO [1]: 0.8 ± 0.2 nmol/min/mg of protein
- trans S-oxide, % of S-oxide product, Expressed HLFMO [1]: 61.4%
- Vmax, Expressed HLFMO [1]: 0.180 nmol/min/mg of protein
- Km [1]: 142 µM
- Km (Human Liver Microsomes): 50 µM
- Vmax, Human Liver Microsomes (Human Liver Microsomes): 2.87 nmol/min/mg of protein
- cis S-oxide formation rate, Human Liver Microsomes (Human Liver Microsomes): (5.3 ± 0.9) nmol/min/mg of protein
- cis S-oxide, % of S-oxide product, Human Liver Microsomes (Human Liver Microsomes): 40.4%
- trans S-oxide formation rate, Human Liver Microsomes (Human Liver Microsomes): 7.8 ± 1.7 nmol/min/mg of protein
- trans S-oxide, % of S-oxide product, Human Liver Microsomes (Human Liver Microsomes): 59.5%

Compound: CN(C)CCCCCCN1c2ccccc2Sc2ccc(C(F)(F)F)cc21 [Compound 6]
- substrate activity for human liver microsomes and expressed HLFMO 3, in words ([1]; human liver microsomes and solubilized protein from E. coli transformed with pTrcHLFMO 3): better substrates
- pH-optimum for tertiary amine N-oxygenation ([1]; microsomal protein and expressed HLFMO 3 gave virtually identical pH-rate profiles): approximately 10
- midpoint of the pH-rate profile of N-oxygenation ([1]; microsomes and expressed HLFMO 3): ~9.5

Compound: CC1Sc2ccccc2S1 [2-Methyl-1,3-Benzodithiole, 2-Methyl-1,3-benzodithiole]
- S-oxide product cis (+)-(1R,2S), % Diastereomer ([1]; human, 0.5 mM, pH 8.4): 48.6%
- S-oxide product cis (+)-(1R,2S), amount formed ([1]; human, 0.5 mM, pH 8.4): 54 ± 22 pmol/min/mg of protein
- S-oxide product cis (-)-(1S,2R), % Diastereomer ([1]; human, 0.5 mM, pH 8.4): 19.8%
- S-oxide product cis (-)-(1S,2R), amount formed ([1]; human, 0.5 mM, pH 8.4): 22 ± 2 pmol/min/mg of protein
- S-oxide product trans (+)-(1R,2R), % Diastereomer ([1]; human, 0.5 mM, pH 8.4): 31.5%
- S-oxide product trans (+)-(1R,2R), amount formed ([1]; human, 0.5 mM, pH 8.4): 35 ± 27 pmol/min/mg of protein
- S-oxide product cis (+)-(1R,2S), % Diastereomer (Human Liver Microsomes; human, 0.5 mM, pH 8.4): 28.2%
- S-oxide product cis (+)-(1R,2S), amount formed (Human Liver Microsomes; human, 0.5 mM, pH 8.4): 176 ± 34 pmol/min/mg of protein
- S-oxide product cis (-)-(1S,2R), % Diastereomer (Human Liver Microsomes; human, 0.5 mM, pH 8.4): 12.3%
- S-oxide product cis (-)-(1S,2R), amount formed (Human Liver Microsomes; human, 0.5 mM, pH 8.4): 77 ± 27 pmol/min/mg of protein
- S-oxide product trans (+)-(1R,2R), % Diastereomer (Human Liver Microsomes; human, 0.5 mM, pH 8.4): 59.5%
- S-oxide product trans (+)-(1R,2R), amount formed (Human Liver Microsomes; human, 0.5 mM, pH 8.4): 372 ± 35 pmol/min/mg of protein

Compound: 4-bromophenyl-1,3-oxathiolane
- pH of maximum S-oxygenase activity ([1]; in the presence of microsomes and expressed HLFMO 3): ~8.5

Results, then the compound that gave them:

- substrate activity for human liver microsomes and expressed HLFMO 3, in words [1]: excellent substrates
- trans S-oxide formation rate, Expressed HLFMO [1]: 0.7 ± 0.1 nmol/min/mg of protein
- trans S-oxide, % of S-oxide product, Expressed HLFMO [1]: 100%
- Vmax, Expressed HLFMO [1]: 2.94 nmol/min/mg of protein
- Km [1]: 311 µM
- Km (Human Liver Microsomes): 166 µM
- Vmax, Human Liver Microsomes (Human Liver Microsomes): 5.2 nmol/min/mg of protein
- trans S-oxide formation rate, Human Liver Microsomes (Human Liver Microsomes): 2.4 ± 0.9 nmol/min/mg of protein
- trans S-oxide, % of S-oxide product, Human Liver Microsomes (Human Liver Microsomes): 100%
Compound: (−)-4-bromophenyl-1,3-oxathiolane [(-)-4-Bromophenyl-1,3-oxathiolane]

- relative activity towards the sulfide, MTS vs. 5-DTP activity (lys158-HFMO3-MBP): 4.9 fold
- relative activity towards the sulfide, MTS vs. 5-DTP activity (glu158-HFMO3-MBP): 20 fold
Compound: CSc1ccc(C)cc1 [MTS, methyl p-tolyl sulfide]

- substrate activity for human liver microsomes and expressed HLFMO 3, in words [1]: detectable
- N-oxide formation, Expressed HFLMO ([1]; human, 0.1 mM, pH 8.4): 10.2 ± 1.2 pmol/min/mg of protein
- N-oxide formation, Human Liver Microsomes (Human Liver Microsomes; human, 0.1 mM, pH 8.4): 58.9 ± 7.4 pmol/min/mg of protein
- S-oxide formation, Human Liver Microsomes (Human Liver Microsomes; human, 0.1 mM, pH 8.4): 29.3 ± 3.7 pmol/min/mg of protein
Compound: CN(C)CCCN1c2ccccc2Sc2ccc(Cl)cc21 [Chlorpromazine, chlorpromazine]
